Assay [1] concerns resistant strain EY1 [抗性菌EY1]. In words: Minimum inhibitory concentration, resistant strain EY1. The assay is classed as cell-based. The following applies: serial dilution, 96-well plate, broth.
Assay [2] has as its system sensitive strain MG1655 [敏感菌株MG1655]. In words: Minimum inhibitory concentration, sensitive strain MG1655. The assay is classed as cell-based. The following applies: Escherichia coli, serial dilution, 96-well plate, broth.
The test system of assay [3] is Escherichia coli MG1655 [大肠杆菌MG1655]. The experiment in a line: Bactericidal effect of antibiotic with or without tryptophan (viable count). The assay is classed as cell-based.
Assay [4] concerns MG1655. The experiment in a line: Rate of generation of drug-tolerant bacteria (viable count). Format: cell-based, Escherichia coli. The following applies: cultures of 3 to 9 h; gentamicin 60 mg/L and kanamycin 40 mg/L 5 h, then various tryptophan concentrations 30 min; concentration-dependent; printed as up to (可达).
The subject of assay [5] is MG1655 drug-tolerant bacteria [耐药菌]. In words: Killing of drug-tolerant bacteria (viable count). Format: cell-based, Escherichia coli. Particulars: after gentamicin 60 mg/L or kanamycin 40 mg/L 5 h; then antibiotic + 5 mM tryptophan 5 h; printed as can reach (可以达到).
In assay [6] the test system is MG1655. In words: Uptake of Texas Red-labelled gentamicin (flow cytometry). Format: cell-based, Escherichia coli. Particulars: log and stationary phase, 0, 1, 5, 10 mM tryptophan. A general note: In flow cytometry, cells or beads pass a laser one at a time.
Assay [7] deals with MG1655. In words: Intracellular reactive oxygen species (H2DCFDA). The assay is classed as cell-based, Escherichia coli. The following applies: log and stationary phase; 60 mg/L gentamicin alone or with 5 mM tryptophan, 1 h.

≈ marks a conversion by molar mass, not a printed value.

By MIC is commonly meant the least concentration at which growth counts as inhibited. Read a high MIC as a need for much substance. Consider `NC[C@H]1O[C@H](O[C@H]2[C@H](O)[C@@H](O[C@H]3O[C@H](CO)[C@@H](O)[C@H](N)[C@H]3O)[C@H](N)C[C@@H]2N)[C@H](O)[C@@H](O)[C@@H]1O` [卡那霉素], for which the minimum inhibitory concentration (MIC) in assay [1] was found to be 220 µg/mL (≈ 454 µM); in assay [2], 3.5 µg/mL (≈ 7.22 µM).

In the case of `N[C@@H](Cc1c[nH]c2ccccc12)C(=O)O` [色氨酸], the “increase of bactericidal effect versus group without tryptophan” value in assay [3] (5 mM tryptophan with gentamicin 3 mg/L and MIC 4 mg/L, 24 h, logarithmic phase) is given as 100 fold. Further, the “increase of bactericidal effect” value in assay [3] (5 mM tryptophan with kanamycin 1.5 mg/L to MIC 3.5 mg/L, 24 h, logarithmic phase) is 10-100 fold. Moreover, in assay [3] (stationary phase MG1655, 5 mM tryptophan with gentamicin 60 mg/L or kanamycin 40 mg/L, 1 h per figure legend, 24 h per example), the “increase of bactericidal efficiency” value was roughly 10 fold. Moreover, in assay [4], the “reduction of generation of drug-tolerant bacteria” value is on record as 10-1000 fold. Also, in assay [5], the “bactericidal efficiency against drug-tolerant bacteria” value was 80-90%. Moreover, the “bacterial uptake of antibiotic” value in assay [6] is “能够提升细菌对于抗生素的吸收,并呈现剂量依赖性”. Further, in assay [7], the “intracellular reactive oxygen species level” value is “能够提高胞内活性氧的水平”.
